Assay results: PubChem BioAssay (NCI)
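Where inhibition never reached the appropriate level, the endpoint shown equals the highest concentration tested. Otherwise, values were interpolated linearly from a five-concentration, 48-hour dose response in 96-well plates. GI50: concentration for 50% inhibition of growth. TGI: total growth inhibition.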

Key:
Assay in all cases: NCI tumour cell line growth inhibition, 48 h
BT-549 breast = test system: BT-549 breast
OVCAR-8 ovarian = test system: OVCAR-8 ovarian
OVCAR-5 ovarian = test system: OVCAR-5 ovarian
MALME-3M melanoma = test system: MALME-3M melanoma
HCC-2998 colon = test system: HCC-2998 colon
EKVX NSCLC = test system: EKVX NSCLC
NCI/ADR-RES ovarian = test system: NCI/ADR-RES ovarian
PC-3 prostate = test system: PC-3 prostate
OVCAR-3 ovarian = test system: OVCAR-3 ovarian
OVCAR-4 ovarian = test system: OVCAR-4 ovarian
UACC-62 melanoma = test system: UACC-62 melanoma
HOP-62 NSCLC = test system: HOP-62 NSCLC
MCF7 breast = test system: MCF7 breast
SK-MEL-28 melanoma = test system: SK-MEL-28 melanoma
LOX IMVI melanoma = test system: LOX IMVI melanoma
HOP-92 NSCLC = test system: HOP-92 NSCLC
SF-539 CNS = test system: SF-539 CNS
SR leukemia = test system: SR leukemia
SK-MEL-2 melanoma = test system: SK-MEL-2 melanoma
MDA-MB-231 breast = test system: MDA-MB-231 breast
A498 renal = test system: A498 renal
IGROV1 ovarian = test system: IGROV1 ovarian
T-47D breast = test system: T-47D breast
HS 578T breast = test system: HS 578T breast
HT29 colon = test system: HT29 colon
KM12 colon = test system: KM12 colon
A549 NSCLC = test system: A549 NSCLC
RXF 393 renal = test system: RXF 393 renal
NCI-H23 lung = test system: NCI-H23 lung
CAKI-1 renal = test system: CAKI-1 renal
RPMI-8226 leukemia = test system: RPMI-8226 leukemia
MDA-MB-435 = test system: MDA-MB-435
CCRF-CEM leukemia = test system: CCRF-CEM leukemia
UACC-257 melanoma = test system: UACC-257 melanoma
UO-31 renal = test system: UO-31 renal
MOLT-4 leukemia = test system: MOLT-4 leukemia
MDA-MB-468 breast = test system: MDA-MB-468 breast
SW-620 colon = test system: SW-620 colon
SN12C renal = test system: SN12C renal
ACHN renal = test system: ACHN renal
SNB-75 CNS = test system: SNB-75 CNS
HCT-15 colon = test system: HCT-15 colon
SNB-19 CNS = test system: SNB-19 CNS
NCI-H522 lung = test system: NCI-H522 lung
HCT-116 colon = test system: HCT-116 colon
TK-10 renal = test system: TK-10 renal
SK-MEL-5 melanoma = test system: SK-MEL-5 melanoma
786-0 renal = test system: 786-0 renal
NCI-H460 lung = test system: NCI-H460 lung
U251 CNS = test system: U251 CNS
K-562 leukemia = test system: K-562 leukemia
SF-295 CNS = test system: SF-295 CNS
DU-145 prostate = test system: DU-145 prostate
COLO 205 colon = test system: COLO 205 colon
M14 melanoma = test system: M14 melanoma
HL-60(TB) leukemia = test system: HL-60(TB) leukemia
SF-268 CNS = test system: SF-268 CNS
SK-OV-3 ovarian = test system: SK-OV-3 ovarian
NCI-H226 lung = test system: NCI-H226 lung

## CCN1CCN(c2ccc(NC(=O)Nc3ccc4c(c3F)CCN4c3ccnc(C(=O)NC)c3)cc2C(F)(F)F)CC1
BT-549 breast
  GI50: 6.92 µM
  TGI: 13.4 µM
OVCAR-8 ovarian
  GI50: 7.08 µM
  TGI: 15.6 µM
OVCAR-5 ovarian
  GI50: 5.82 µM
  TGI: 10.8 µM
MALME-3M melanoma
  GI50: 5.49 µM
  TGI: 10.5 µM
HCC-2998 colon
  GI50: 6.44 µM
  TGI: 12 µM
EKVX NSCLC
  GI50: 6.71 µM
  TGI: 12.6 µM
NCI/ADR-RES ovarian
  GI50: 6.87 µM
  TGI: 16 µM
PC-3 prostate
  GI50: 7.39 µM
  TGI: 18.9 µM
OVCAR-3 ovarian
  GI50: 6.02 µM
  TGI: 11.6 µM
OVCAR-4 ovarian
  GI50: 6.3 µM
  TGI: 13.7 µM
UACC-62 melanoma
  GI50: 6.18 µM
  TGI: 11.3 µM
HOP-62 NSCLC
  GI50: 5.34 µM
  TGI: 10.9 µM
MCF7 breast
  GI50: 5.93 µM
  TGI: 13.1 µM
SK-MEL-28 melanoma
  GI50: 5.65 µM
  TGI: 10.8 µM
LOX IMVI melanoma
  GI50: 5.54 µM
  TGI: 10.7 µM
HOP-92 NSCLC
  GI50: 5.87 µM
  TGI: 12.5 µM
SF-539 CNS
  GI50: 2.35 µM
  TGI: 7.24 µM
SR leukemia
  GI50: 5.44 µM
  TGI: 18.7 µM
SK-MEL-2 melanoma
  GI50: > 37.3 µM
  TGI: > 37.3 µM
MDA-MB-231 breast
  GI50: 6.26 µM
  TGI: 11.5 µM
A498 renal
  GI50: 5.77 µM
  TGI: 10.9 µM
IGROV1 ovarian
  GI50: 6.66 µM
  TGI: 12.2 µM
T-47D breast
  GI50: > 37.3 µM
  TGI: > 37.3 µM
HS 578T breast
  GI50: 4.9 µM
  TGI: 13.2 µM
HT29 colon
  GI50: 3.06 µM
  TGI: 9.53 µM
KM12 colon
  GI50: 0.341 µM
  TGI: 6.62 µM
A549 NSCLC
  GI50: 6.75 µM
  TGI: 13.5 µM
RXF 393 renal
  GI50: 1.35 µM
  TGI: 6.03 µM
NCI-H23 lung
  GI50: 5.97 µM
  TGI: 12 µM
CAKI-1 renal
  GI50: 6.56 µM
  TGI: 12 µM
RPMI-8226 leukemia
  GI50: 7.73 µM
  TGI: 30.9 µM
MDA-MB-435
  GI50: 5.09 µM
  TGI: 10.4 µM
CCRF-CEM leukemia
  GI50: 6.25 µM
  TGI: 24.4 µM
UACC-257 melanoma
  GI50: 6.27 µM
  TGI: 12 µM
UO-31 renal
  GI50: 5.43 µM
  TGI: 10.3 µM
MOLT-4 leukemia
  GI50: 2.09 µM
  TGI: 16.3 µM
MDA-MB-468 breast
  GI50: 6.36 µM
  TGI: 12.7 µM
SW-620 colon
  GI50: 5.07 µM
  TGI: 11.1 µM
SN12C renal
  GI50: 5.88 µM
  TGI: 11.2 µM
ACHN renal
  GI50: 5.9 µM
  TGI: 10.9 µM
SNB-75 CNS
  GI50: 0.585 µM
  TGI: 6.84 µM
HCT-15 colon
  GI50: 5.54 µM
  TGI: 12.1 µM
SNB-19 CNS
  GI50: 5.95 µM
  TGI: 11.2 µM
NCI-H522 lung
  GI50: 7.1 µM
  TGI: 13.8 µM
HCT-116 colon
  GI50: 6.98 µM
  TGI: 16.5 µM
TK-10 renal
  GI50: 7.52 µM
  TGI: 13.1 µM
SK-MEL-5 melanoma
  GI50: 6.1 µM
  TGI: 11.3 µM
786-0 renal
  GI50: 5.77 µM
  TGI: 13.7 µM
NCI-H460 lung
  GI50: 6.04 µM
  TGI: 12.3 µM
U251 CNS
  GI50: 4.8 µM
  TGI: 9.97 µM
K-562 leukemia
  GI50: 7.43 µM
  TGI: > 37.3 µM
SF-295 CNS
  GI50: 3.52 µM
  TGI: 8.23 µM
DU-145 prostate
  GI50: 6.45 µM
  TGI: 11.9 µM
COLO 205 colon
  GI50: 10.7 µM
  TGI: > 37.3 µM
M14 melanoma
  GI50: 6.8 µM
  TGI: 14.5 µM
HL-60(TB) leukemia
  GI50: 6.65 µM
  TGI: 15.7 µM
SF-268 CNS
  GI50: 6.13 µM
  TGI: 14 µM
SK-OV-3 ovarian
  GI50: 5.84 µM
  TGI: 11.6 µM
NCI-H226 lung
  GI50: 6.58 µM
  TGI: 14.7 µM
